Data on two molecules can be found in article PMC5310151 (Saudi Pharmaceutical Journal : SPJ, 2016).

One test concerns the target T1, PPARγ (Rattus norvegicus, UniProt O88275).
T1 sequence (O88275 1-505): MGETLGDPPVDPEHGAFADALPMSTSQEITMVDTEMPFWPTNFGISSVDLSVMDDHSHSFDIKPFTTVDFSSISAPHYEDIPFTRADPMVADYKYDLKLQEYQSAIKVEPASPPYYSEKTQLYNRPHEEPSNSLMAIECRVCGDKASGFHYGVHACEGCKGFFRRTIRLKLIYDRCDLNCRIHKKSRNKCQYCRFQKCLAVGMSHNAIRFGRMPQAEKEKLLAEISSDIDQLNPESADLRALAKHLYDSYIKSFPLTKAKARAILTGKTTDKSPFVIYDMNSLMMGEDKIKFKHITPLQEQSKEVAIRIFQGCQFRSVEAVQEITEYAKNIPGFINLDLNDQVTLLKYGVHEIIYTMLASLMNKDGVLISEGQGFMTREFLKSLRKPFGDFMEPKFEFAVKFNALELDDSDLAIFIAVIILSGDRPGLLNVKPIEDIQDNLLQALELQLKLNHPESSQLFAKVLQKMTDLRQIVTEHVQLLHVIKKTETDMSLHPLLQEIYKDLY
Description: PPRE luciferase reporter assay in HepG2 cells transfected with PPARγ. In kind it is cell-based. The settings on record: HepG2, read-out: Fold induction / PPAR gamma / 50 μg/ml. On the technique in general: A reporter such as luciferase makes a cellular process visible.

A further test has as its target T2, PPARα (Mus musculus, UniProt P23204).
T2 sequence (P23204 1-468): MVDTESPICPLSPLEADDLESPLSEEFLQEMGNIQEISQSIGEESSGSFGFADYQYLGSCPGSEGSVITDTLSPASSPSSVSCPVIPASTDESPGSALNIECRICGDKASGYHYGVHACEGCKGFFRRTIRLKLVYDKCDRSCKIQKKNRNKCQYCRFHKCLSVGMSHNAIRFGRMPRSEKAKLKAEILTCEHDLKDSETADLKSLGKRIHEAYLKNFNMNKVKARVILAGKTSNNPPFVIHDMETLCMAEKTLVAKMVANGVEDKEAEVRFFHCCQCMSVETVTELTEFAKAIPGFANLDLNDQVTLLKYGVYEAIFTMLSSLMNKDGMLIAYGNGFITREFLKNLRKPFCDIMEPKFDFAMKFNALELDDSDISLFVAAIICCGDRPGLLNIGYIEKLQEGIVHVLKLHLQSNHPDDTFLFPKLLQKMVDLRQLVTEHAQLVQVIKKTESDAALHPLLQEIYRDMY
Description: PPRE luciferase reporter assay in HepG2 cells transfected with PPARα. Format: cell-based. As to conditions: HepG2, read-out: Fold induction / PPAR alpha / 50 μg/ml.

The structures appear in SMILES notation.

`CN(CCOc1ccc(CC2SC(=O)NC2=O)cc1)c1ccccn1` (centres unmarked) [Rosiglitazone]: the fold induction at 10 µM at PPARγ was found to be 4.33 ± 0.54.
`CC(C)(Oc1ccc(C2CC2(Cl)Cl)cc1)C(=O)O` (centres unmarked) [Ciprofibrate]: the fold induction on PPARα was determined as 2.2 ± 0.21.
